Patent US8633319B2, “7-(1H-pyrazol-4-yl)-1,6-naphthyridine compounds as Syk inhibitors” (Glaxo Group Limited, priority 2010, dated 2014)
Like-named read-outs stand apart in the source and are kept apart here.

Assays:
[1] = target: T1, hERG (Homo sapiens, UniProt Q12809); assay: Cy3B Dofetilide Fluoro-Ligand Binding Assay for hERG; conditions: membranes of CHO-K1 cells that express hERG, pH 7.4, probe Cy3b-Dofetilide fluoro-ligand, 1.0 nM, hERG-expressing CHO-K1 membranes
T1 construct: expressed in transfected cells; host or cells: CHO-K1 cells stably expressing human hERG; membrane fraction
Method: Compound potencies were determined by a fluoro-ligand^§ (Cy3b-Dofetilide) fluorescence polarisation assay.
hERG-expressing CHO-K1 membranes* (60 μg/ml) were incubated with 1.0 nM fluoro-ligand^§, in assay buffer (25 mM HEPES, 1.2 mM MgCl2, 100 mM KCl and 0.1% pluronic, pH adjusted to 7.4 using 5M KOH). The final potassium concentration in the assay was 100 mM. After 70 min mixing at room temperature, in the dark, 10 μl was dispensed into each well of a black LV Greiner 384-well plate containing 0.1 μl of test compound in DMSO. The plates were left to equilibrate for 2 h before reading on an Acquest™/Analyst™ imager. pIC50 data were generated using from an 11-point inhibition curve (top assay concentration of 50 μM and a 1:3 step-dilution), a […] curve-fit being applied using ABase and XC50 to analyse data and generate curve fits.
Chinese Hamster Ovary (CHO) cells stably expressing the human hERG receptor were grown to 80% confluency before being harvested by trypsinisation and subsequent centrifugation at 500 g for 10 min. Cell pellets were frozen at −80 C before membrane production. The frozen pellet was thawed on ice, re-suspended and homogenised in 10 volumes of membrane buffer (50 mM HEPES, pH 7.4, 1 mM EDTA, 1 mM PMSF, 2×10^-6M Pepstatin A). The membrane suspension was centrifuged for 20 min at 500 g, the pellet discarded and the supernatent spun again at 48,000 g for 30 min. Following the second centrifugation the remaining pellet containing the membrane fraction was re-suspended in an appropriate volume (4 ml for each ml of frozen cell pellet) and assayed for protein concentration.

[2] = test system: Ramos B cells; assay: Ramos pErk Assay; type: cell-based; conditions: Homo sapiens, as the hydrochloride salts, anti-IgM stimulated
Method: Ramos B cells (human B cells of Burkitt's Lymphoma) are stimulated using anti-IgM. […] The subsequent autophosphorylation of Syk leads to initiation of a signalling cascade resulting in B cell activation via the Erk MAP Kinase pathway. As a result Erk is phosphorylated and following cell lysis is detected by an immune capture assay.
Cells were plated at a density of 2.5×10^5/well in a volume of 25 μl assay medium (RPMI containing 10% heat inactivated foetal calf serum, 1% L-glutamine) in 96 v-well polypropylene plates. 25 μl appropriately diluted compound solution was added and the plate incubated for 30 min at 37° C. with 5% CO2. Cells were stimulated with 5 μl Fab′2 fragments of goat anti-human IgM (5 μg/ml final) for 7 min at 37° C. Cells are lysed by the addition of 55 μL 2×RIPA lysis buffer for 2 h at 4° C. Lysate may be frozen at this point at −80° C.
50 μl cell lysate was transferred to a 96 well MSD plate coated with anti-pErk1/2 (Thr/Tyr:202/204; 185/187) capture antibody and incubated for 16 hours at 4° C. or 3 hours at room temperature. The plate was washed and an anti-pErk detection antibody added (25 μl/well) for 1 hour at room temperature. This was removed, 150 μL MSD read buffer added and the resultant electrochemiluminescence signal measured.
Compound was prepared as a 10 mM stock in DMSO and a dilution series prepared in DMSO using 9 successive 5-fold dilutions. This dilution series was diluted a further 1:100 with assay medium to give the final concentration range to be tested of 5×10^−5 to 2.56×10^−11M. Compound dilutions were prepared using the Biomek 2000 and Biomek Nx automated robotic pipetting systems.

[3] = as the free base, read-out: average IC50
[4] = form not stated (first list), read-out: average pIC50 (converted)
[5] = hydrochloric acid salts, read-out: average IC50
[6] = hydrochloric acid salts, read-out: average pIC50 (converted)

T1 sequence (Q12809 whole entry): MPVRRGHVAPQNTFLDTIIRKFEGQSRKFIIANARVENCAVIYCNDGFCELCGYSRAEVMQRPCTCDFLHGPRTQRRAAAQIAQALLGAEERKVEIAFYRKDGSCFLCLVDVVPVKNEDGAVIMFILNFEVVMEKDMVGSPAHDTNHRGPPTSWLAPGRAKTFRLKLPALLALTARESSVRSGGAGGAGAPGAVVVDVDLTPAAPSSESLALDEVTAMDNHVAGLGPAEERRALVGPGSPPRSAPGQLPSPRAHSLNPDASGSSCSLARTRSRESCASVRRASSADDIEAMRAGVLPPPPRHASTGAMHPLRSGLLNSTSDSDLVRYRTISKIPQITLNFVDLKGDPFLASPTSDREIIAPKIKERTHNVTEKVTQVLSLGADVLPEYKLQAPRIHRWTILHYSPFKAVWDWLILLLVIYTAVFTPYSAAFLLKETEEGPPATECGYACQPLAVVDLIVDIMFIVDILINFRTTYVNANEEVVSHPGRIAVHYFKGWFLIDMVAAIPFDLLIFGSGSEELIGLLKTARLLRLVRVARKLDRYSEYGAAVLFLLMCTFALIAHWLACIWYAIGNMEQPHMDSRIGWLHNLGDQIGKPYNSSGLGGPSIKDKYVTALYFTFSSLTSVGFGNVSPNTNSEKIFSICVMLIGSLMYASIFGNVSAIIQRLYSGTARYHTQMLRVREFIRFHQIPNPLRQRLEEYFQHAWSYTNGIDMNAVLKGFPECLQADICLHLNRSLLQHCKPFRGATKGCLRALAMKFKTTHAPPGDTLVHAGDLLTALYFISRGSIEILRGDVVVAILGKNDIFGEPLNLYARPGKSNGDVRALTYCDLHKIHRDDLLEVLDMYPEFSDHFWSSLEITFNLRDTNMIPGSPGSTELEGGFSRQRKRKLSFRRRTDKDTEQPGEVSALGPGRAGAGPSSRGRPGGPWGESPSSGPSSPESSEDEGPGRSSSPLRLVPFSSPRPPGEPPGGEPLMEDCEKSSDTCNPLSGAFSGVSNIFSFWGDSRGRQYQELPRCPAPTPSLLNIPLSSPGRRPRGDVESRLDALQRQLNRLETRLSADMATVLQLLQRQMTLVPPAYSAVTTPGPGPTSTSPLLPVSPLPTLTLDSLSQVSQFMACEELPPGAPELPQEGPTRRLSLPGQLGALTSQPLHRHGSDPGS

SMILES | IC50 at 2 h [1, 3] | IC50 at 2 h [1, 4] | IC50 at 2 h [1, 5] | IC50 at 2 h [1, 6] | IC50 [2]
COCn1cc(-c2cc3ncccc3c(NC[C@]3(F)CCCNC3)n2)cn1 [Example 3, N-{[(3S)-3-Fluoro-3-piperidinyl]methyl}-7-{1-[(methyloxy)methyl]-1H-pyrazol-4-yl}-1,6-naphthyridin-5-amine] | > 10 µM | > 10 µM | > 20 µM | > 10 µM | < 1 µM
CCn1cc(-c2cc3ncccc3c(NC[C@]3(F)CCCNC3)n2)cn1 [Example 1, 7-(1-Ethyl-1H-pyrazol-4-yl)-N-{[(3S)-3-fluoro-3-piperidinyl]methyl}-1,6-naphthyridin-5-amine] | > 10 µM | > 10 µM | > 20 µM | > 10 µM | < 1 µM
CCn1cc(-c2cc3ncccc3c(OC[C@]3(F)CCCNC3)n2)cn1 [Example 4, 7-(1-Ethyl-1H-pyrazol-4-yl)-5-({[(3S)-3-fluoro-3-piperidinyl]methyl}oxy)-1,6-naphthyridine] | > 10 µM | > 10 µM | > 20 µM | > 10 µM | < 1 µM
CC(C)(C)n1cc(-c2cc3ncccc3c(NC[C@]3(F)CCCNC3)n2)cn1 [Example 2, 7-[1-(1,1-Dimethylethyl)-1H-pyrazol-4-yl]-N-{[(3S)-3-fluoro-3-piperidinyl]methyl}-1,6-naphthyridin-5-amine] | > 10 µM | > 10 µM | > 20 µM | > 10 µM | < 1 µM
